The values that follow come from patent publication US6423731B1, “Indole derivatives as prodrugs of 5-HT1-like receptor agonists” (Zeneca Limited, priority 1994, dated 2002).

The nature of data set [1]: Diffusion through a lipoidal membrane barrier (trans-cellular absorption). The class given is physicochemical. The following applies: laceryl alcohol/caprytic acid lipid membrane. Here is the method:
The diffusion rates of the Compound of Example 3 and the active compound, 4-[3-[2-dimethylamino)ethyl]-1H-indol-5-ylmethyl]-2-oxazolidinone, through a lipoidal membrane barrier (laceryl alcohol/caprytic acid lipid membrane) were determined and compared.

Data set [2] can be described thus: Incubation with rat hepatocytes (conversion to active compound). Format: in vitro ADME. The protocol:
The compound of Example 3 was incubated with rat hepalocytes to determine whether the active compound, 4-[3-[2-(dimethylamino)ethyl]-1H-indol-5-ylmethyl]-2-oxazolidinone, is a main product of its metabolism.

A short description of data set [3]: Plasma concentrations in rats after intravenous administration. Format: in vivo, rat. Here is the method: (§1) Investigations were carried out in rats to determine whether 4-[1-Acetyl-3-[2-(dimethylamino)ethyl]indol-5-ylmethyl]oxazolidin-2-one acetate (compound of Example 6) acts as a prodrug for the pharmacologically active compound 4-[3-[2-(dimethylamino)ethyl]-1H-indol-5-ylmethyl]-2-oxazolidinone described in EP-A-0486666. The compound of Example 6 was incubated with rat plasma at a concentration of approx. 0.2 μg/ml for up to 4 h. At selected times the incubations were terminated by addition of acetone and the concentrations of both 4-[1-Acetyl-3-[2-(dimethylamino)ethyl]indol-5-ylmethyl]oxazolidin-2-one acetate and its breakdown product 4-[3-[2-(dimethylamino)ethyl]-1H-indol-5-ylmethyl]-2-oxazolidinone were determined by HPLC assay. In addition rats were administered 4-[1-Acetyl-3-[2-(dimethylamino)ethyl]indol-5-ylmethyl]oxazolidin-2-one acetate intravenously at a dose of 4 mg/kg and the plasma and brain concentrations of this compound and the breakdown product, 4-[3-[2-(Dimethylamino)ethyl]-1H-indol-5-ylmethyl]- 2-oxazolidinone were determined up to 8 h after administration.
After intravenous administration, the peak plasma concentration (Cmax) of 4-[1-acetyl-3-[2-(dimethylamino)ethyl]indol-5-ylmethyl]oxazolidin-2-one acetate was approx 0.2 μg/ml (5 min) and this parent compound was detectable up to 1 h post dose (limit of detection 0.02 μg/ml); the plasma half-life was approximately 0.2 h. The breakdown product, 4-[3-[2-(dimethylamino) ethyl]-1H-indol-5-ylmethyl]-2-oxazolidinone was also detected in the plasma (Cmax 0.3 μg/ml, 5 min) up to 4 h after dosage.

Data set [4] is described as follows: Incubation of compound with rat plasma, HPLC assay of parent and breakdown product. The class given is in vitro ADME. Here is the method:
as §1
4-[1-Acetyl-3-[2-(dimethylamino)ethyl]indol-5-ylmethyl]oxazolidin-2-one acetate was converted to 4-[3-[2-(Dimethylamino)ethyl]-1H-indol-5-ylmethyl]-2-oxazolidinone in rat plasma, with a half-life of approximately 3 h. After 4 h incubation only 30% of the parent compound of example 6 remained.

`CC(=O)O.Cc1ccccc1C(=O)n1cc(CCN(C)C)c2cc(CC3COC(=O)N3)ccc21` (stereo not drawn) [Example 3, 4-[1-(2-toluoyl)-3-[2-(dimethylamino)ethyl]indol-5-ylmethyl]oxazolidin-2-one acetate] had a melting point of 51.5 to 54 °C. In addition, the “Diffusion Rate” value in data set [1] is reported as 3.88 cm/min/1000. Moreover, the “conversion into the active compound” value in data set [2] was “extensively and rapidly converted into the active compound”. The compound remaining entry in data set [2] (after 30 minutes incubation) was “no compound of Example 3 remained”.

On to `CN(C)CCc1c[nH]c2ccc(CC3COC(=O)N3)cc12` (stereo not drawn) [Active compound, 4-[3-[2-(dimethylamino)ethyl]-1H-indol-5-ylmethyl]-2-oxazolidinone, reference compound], for which the “Diffusion Rate” value in data set [1] was found to be 0.68 cm/min/1000. Further, the “breakdown product detected in plasma up to, after dosage” value in data set [3] (rat, in vivo, iv, 4 mg/kg) is given as “up to 4 h”.

Molecule `CC(=O)O.CC(=O)n1cc(CCN(C)C)c2cc(CC3COC(=O)N3)ccc21` (stereo not drawn) [Example 6, 4-[1-Acetyl-3-[2-(dimethylamino)ethyl]indol-5-ylmethyl]oxazolidin-2-one acetate] gave a half-life in data set [3] (in vivo, rat, intravenous, 4 mg/kg) of roughly 0.2 h. In addition, the Cmax in data set [3] (in vivo, rat, intravenous, 4 mg/kg, read-out: peak plasma concentration (Cmax) of parent compound) was roughly 200 ng/mL. The “parent compound detectable in plasma up to, post dose” value in data set [3] (rat, intravenous, 4 mg/kg, limit of detection 0.02 μg/ml) is reported as “up to 1 h”. In addition, the “conversion into active compound in rats” value in data set [3] (rats, plasma incubation and intravenous experiments) was “is converted into 4-[3-[2-(dimethylamino)ethyl]-1H-indol-5-ylmethyl]-2-oxazolidinone in rats”. Moreover, the half-life at 0.2 μg/ml in data set [4] (rat plasma incubation, approx. 0.2 μg/ml, up to 4 h, read-out: half-life of conversion to 4-[3-[2-(Dimethylamino)ethyl]-1H-indol-5-ylmethyl]-2-oxazolidinone in rat plasma (converted)) is roughly 3 h. Further, in data set [4] (rat plasma, after 4 h incubation), the parent compound remaining is reported as 30%.
